How the values were obtained:
[1] = target: Serine-protein kinase ATM (Homo sapiens, UniProt Q13315); assay: Cellular Assay: Assay a) HT29 cells (ECACC #85061109) were seeded into 384 well assay plates (Costar #3712) at a density of 3500 cells/well in 40 μl EMEM medium containing 1% L glutamine and 10% FBS and allowed to adhere overnight. The following morning compounds of Formula (I) in 100% DMSO were added to assay plates by acoustic dispensing. After 1 h incubation at 37° C. and 5% CO2 plates (up to …; format: cell-based, HT-29
Sequence of Serine-protein kinase ATM (Q13315 whole entry): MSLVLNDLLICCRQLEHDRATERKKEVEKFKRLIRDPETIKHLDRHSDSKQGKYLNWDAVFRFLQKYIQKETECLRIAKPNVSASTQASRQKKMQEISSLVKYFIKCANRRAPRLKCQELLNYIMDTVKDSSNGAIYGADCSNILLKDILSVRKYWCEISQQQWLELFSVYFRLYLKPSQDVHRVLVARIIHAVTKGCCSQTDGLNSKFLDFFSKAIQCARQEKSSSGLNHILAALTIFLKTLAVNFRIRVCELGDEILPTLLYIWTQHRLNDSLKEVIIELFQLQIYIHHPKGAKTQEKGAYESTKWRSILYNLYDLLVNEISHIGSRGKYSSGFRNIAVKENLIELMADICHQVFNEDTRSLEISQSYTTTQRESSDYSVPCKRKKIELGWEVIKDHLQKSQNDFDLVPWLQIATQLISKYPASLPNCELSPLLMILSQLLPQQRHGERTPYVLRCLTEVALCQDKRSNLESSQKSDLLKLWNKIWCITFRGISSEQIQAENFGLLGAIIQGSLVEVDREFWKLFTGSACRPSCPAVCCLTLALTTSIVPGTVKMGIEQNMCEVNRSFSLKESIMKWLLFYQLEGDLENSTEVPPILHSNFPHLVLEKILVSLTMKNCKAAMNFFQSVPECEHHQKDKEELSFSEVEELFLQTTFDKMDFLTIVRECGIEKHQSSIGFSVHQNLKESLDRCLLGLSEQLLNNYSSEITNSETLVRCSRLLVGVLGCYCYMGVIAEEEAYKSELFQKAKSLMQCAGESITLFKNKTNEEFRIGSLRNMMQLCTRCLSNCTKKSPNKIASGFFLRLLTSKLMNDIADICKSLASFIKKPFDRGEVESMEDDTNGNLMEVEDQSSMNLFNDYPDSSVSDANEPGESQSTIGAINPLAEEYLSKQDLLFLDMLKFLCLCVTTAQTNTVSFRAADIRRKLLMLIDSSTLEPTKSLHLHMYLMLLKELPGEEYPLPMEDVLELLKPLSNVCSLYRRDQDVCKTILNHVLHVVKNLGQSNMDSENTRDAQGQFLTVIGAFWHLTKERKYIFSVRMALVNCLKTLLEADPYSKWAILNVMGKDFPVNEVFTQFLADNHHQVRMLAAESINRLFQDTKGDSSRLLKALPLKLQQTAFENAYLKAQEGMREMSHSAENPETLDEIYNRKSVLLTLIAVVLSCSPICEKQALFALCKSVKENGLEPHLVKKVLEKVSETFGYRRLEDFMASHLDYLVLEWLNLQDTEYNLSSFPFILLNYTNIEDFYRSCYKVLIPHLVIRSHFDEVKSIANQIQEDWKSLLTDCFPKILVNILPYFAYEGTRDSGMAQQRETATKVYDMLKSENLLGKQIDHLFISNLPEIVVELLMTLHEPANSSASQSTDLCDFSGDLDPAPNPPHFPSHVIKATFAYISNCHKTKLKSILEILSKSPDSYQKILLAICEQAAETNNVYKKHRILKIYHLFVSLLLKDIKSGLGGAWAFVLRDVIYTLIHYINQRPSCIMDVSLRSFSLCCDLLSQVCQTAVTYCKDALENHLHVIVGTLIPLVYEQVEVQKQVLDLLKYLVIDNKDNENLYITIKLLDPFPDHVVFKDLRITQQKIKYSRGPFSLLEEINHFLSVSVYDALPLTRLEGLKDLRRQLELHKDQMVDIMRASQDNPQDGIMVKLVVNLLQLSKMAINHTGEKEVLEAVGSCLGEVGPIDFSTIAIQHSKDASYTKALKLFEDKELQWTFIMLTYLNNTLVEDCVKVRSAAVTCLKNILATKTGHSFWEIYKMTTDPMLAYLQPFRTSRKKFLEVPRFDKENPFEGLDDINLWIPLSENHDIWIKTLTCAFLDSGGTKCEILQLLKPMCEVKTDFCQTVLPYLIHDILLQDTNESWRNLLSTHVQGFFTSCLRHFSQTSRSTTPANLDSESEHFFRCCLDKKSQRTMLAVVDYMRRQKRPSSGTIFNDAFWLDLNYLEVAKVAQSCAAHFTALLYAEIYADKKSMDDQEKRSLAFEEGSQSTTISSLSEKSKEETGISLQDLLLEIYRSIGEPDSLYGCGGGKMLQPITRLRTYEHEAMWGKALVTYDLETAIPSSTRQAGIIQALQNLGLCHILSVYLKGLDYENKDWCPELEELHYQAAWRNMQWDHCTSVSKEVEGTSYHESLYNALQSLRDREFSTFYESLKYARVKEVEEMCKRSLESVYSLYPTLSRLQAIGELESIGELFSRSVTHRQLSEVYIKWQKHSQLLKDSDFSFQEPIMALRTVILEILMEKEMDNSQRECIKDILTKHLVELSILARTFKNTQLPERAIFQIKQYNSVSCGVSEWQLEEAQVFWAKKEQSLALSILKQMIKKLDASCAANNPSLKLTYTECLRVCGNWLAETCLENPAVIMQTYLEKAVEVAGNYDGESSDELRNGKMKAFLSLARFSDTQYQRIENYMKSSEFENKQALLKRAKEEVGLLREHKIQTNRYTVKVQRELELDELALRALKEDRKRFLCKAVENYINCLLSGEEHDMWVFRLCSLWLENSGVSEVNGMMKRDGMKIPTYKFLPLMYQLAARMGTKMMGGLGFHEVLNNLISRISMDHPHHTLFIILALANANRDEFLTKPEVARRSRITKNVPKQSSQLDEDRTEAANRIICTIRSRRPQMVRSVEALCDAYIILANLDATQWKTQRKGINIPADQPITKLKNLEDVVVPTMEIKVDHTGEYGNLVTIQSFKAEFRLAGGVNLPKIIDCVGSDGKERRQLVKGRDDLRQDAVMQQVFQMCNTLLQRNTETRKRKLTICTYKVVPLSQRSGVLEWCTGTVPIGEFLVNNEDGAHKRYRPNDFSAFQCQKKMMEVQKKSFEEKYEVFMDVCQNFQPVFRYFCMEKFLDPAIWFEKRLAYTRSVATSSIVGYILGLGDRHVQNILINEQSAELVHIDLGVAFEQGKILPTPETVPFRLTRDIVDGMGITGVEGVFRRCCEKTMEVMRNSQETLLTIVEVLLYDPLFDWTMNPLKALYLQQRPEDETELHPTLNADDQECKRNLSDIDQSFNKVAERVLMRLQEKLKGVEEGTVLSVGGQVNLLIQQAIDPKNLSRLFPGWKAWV

[2] = target: Serine/threonine-protein kinase ATR (Homo sapiens, UniProt Q13535); assay: Cellular Assay: Assay b) HT29 cells (ECACC #85061109) were seeded into 384 well assay plates (Costar #3712) at a density of 6000 cells/well in 40 μl EMEM medium containing 1% L glutamine and 10% FBS and allowed to adhere overnight. The following morning compound of Formula (I) in 100% DMSO was added to assay plates by acoustic dispensing. After 1 h incubation at 37° C. and 5% CO2, 40 nl of 3 mM 4NQO in 100% DMSO was added to all wells by acoustic dispensing, except minimum control wells which were left untreated with 4NQO to generate a null response control. Plates were returned to the incubator for a further 1 h. Then cells were fixed by adding 20 μl of 3.7% formaldehyde in PBS solution and incubating for 20 mins at r.t. Then 20 μl of 0.1% Triton X100 in PBS was added and incubated for 10 minutes at r.t., to permeabalise cells. Then the plates were washed once with 50 μl/well PBS, using a Biotek EL405 plate washer. Phospho-Chk1 Ser 345 antibody (Cell Signalling Technology #2348) was diluted 150 fold in PBS containing 0.05% polysorbate/Tween and 15 μl was added to each well and incubated over night at r.t. The next morning plates were washed three times with 50 μl/well PBS, using a Biotek EL405 plate washer, and then 20 μl of secondary Ab solution, containing 500 fold diluted Alexa Fluor 488 Goat anti-rabbit IgG (Molecular Probes #A-11008) and 0.002 mg/ml Hoeschst dye (Molecular Probes #H-3570), in PBST, was added. After 2 h incubation at r.t., the plates were washed three times with 50 μl/well PBS, using a Biotek EL405 plate washer, and plates were then sealed with black plate seals until read. Plates were read using an ArrayScan VTI instrument, using an XF53 filter with 10× objective. A two laser set up was used to analyse nuclear staining with Hoeschst (405 nm) and secondary antibody staining of pChk1 (488 nm).; format: cell-based, HT-29

Row | SMILES | IC50 [1] | IC50 [2]
1 | CN(C)CCCOc1ccc(-c2cc3c(cc2F)ncc2c3n([C@@H]3CCCOC3)c(=O)n2C)cn1 | 1 nM | > 30000 nM
2 | CN(C)CCCOc1ccc(-c2ccc3ncc4c(c3c2)n([C@H]2C[C@@H](O)C2)c(=O)n4C)cn1 | 0.24 nM | > 30000 nM
3 | CN(C)CCCOc1ccc(-c2cc3c(cc2F)ncc2c3n([C@H]3CCCOC3)c(=O)n2C)cn1 | 1.14 nM | > 29600 nM
4 | CN(C)CCCOc1ccc(-c2ccc3ncc4c(c3c2)n(C2COC2)c(=O)n4C)cn1 | 1.46 nM | > 30000 nM

Reference: ChEMBL document CHEMBL3886912, “Imidazo[4,5-c]quinolin-2-one compounds and their use in treating Cancer” (2016)
